Source: patent publication US20160220524A1, “COMPOSITIONS OF SMALL MOLECULE THERAPEUTICS” (NEXMED HOLDINGS, INC., priority 2015, published 2016)
Where a name gives a salt, the structure may show the parent alone.

Columns and labels:
[1] = water; cited from earlier work
[2] = Experimental: The compounds from BCS Class 2, 3 and 4 were each formulated at 5 mg/ml in a liquid carrier of either an aqueous solution of polyethylene glycol 400 (20% PEG 400), or an aqueous solution of DDAIP-HCL (20%). […] Cohorts of three animals per group were placed in the study. On day 1, animals from each group were dosed at 30 mg/kg (6 ml/kg) by oral gavage (PO). Animals were fed at the time of dosing. Serial blood samples were collected at pre-dose, and after post-dose intervals of 30 minutes, 1 hour, 2 hours and 4 hours. The blood samples were collected into lithium heparin-coated tubes. At each time point, 0.15 ml of blood was collected via left jugular vein cannulae and processed for collection of plasma by centrifuging at approximately 2,000 rpm for approximately 10 minutes. The cellular fraction of the blood was discarded. Collection times and volume of plasma samples were recorded and tabulated. Plasma samples were transferred into clean tubes and snap frozen onto dry ice. Samples were stored at −80° C. until ready for bio-analysis by LC/MS/MS. The drug concentration was measured from supernatant after centrifugation of the dosing solution
P-glycoprotein (P-gp) = P-glycoprotein (P-gp) (Homo sapiens, UniProt P08183); assay: Inhibition of P-glycoprotein; assay type: in vitro ADME; details: up to 10 mM
P-glycoprotein (P-gp), sequence (P08183 whole entry): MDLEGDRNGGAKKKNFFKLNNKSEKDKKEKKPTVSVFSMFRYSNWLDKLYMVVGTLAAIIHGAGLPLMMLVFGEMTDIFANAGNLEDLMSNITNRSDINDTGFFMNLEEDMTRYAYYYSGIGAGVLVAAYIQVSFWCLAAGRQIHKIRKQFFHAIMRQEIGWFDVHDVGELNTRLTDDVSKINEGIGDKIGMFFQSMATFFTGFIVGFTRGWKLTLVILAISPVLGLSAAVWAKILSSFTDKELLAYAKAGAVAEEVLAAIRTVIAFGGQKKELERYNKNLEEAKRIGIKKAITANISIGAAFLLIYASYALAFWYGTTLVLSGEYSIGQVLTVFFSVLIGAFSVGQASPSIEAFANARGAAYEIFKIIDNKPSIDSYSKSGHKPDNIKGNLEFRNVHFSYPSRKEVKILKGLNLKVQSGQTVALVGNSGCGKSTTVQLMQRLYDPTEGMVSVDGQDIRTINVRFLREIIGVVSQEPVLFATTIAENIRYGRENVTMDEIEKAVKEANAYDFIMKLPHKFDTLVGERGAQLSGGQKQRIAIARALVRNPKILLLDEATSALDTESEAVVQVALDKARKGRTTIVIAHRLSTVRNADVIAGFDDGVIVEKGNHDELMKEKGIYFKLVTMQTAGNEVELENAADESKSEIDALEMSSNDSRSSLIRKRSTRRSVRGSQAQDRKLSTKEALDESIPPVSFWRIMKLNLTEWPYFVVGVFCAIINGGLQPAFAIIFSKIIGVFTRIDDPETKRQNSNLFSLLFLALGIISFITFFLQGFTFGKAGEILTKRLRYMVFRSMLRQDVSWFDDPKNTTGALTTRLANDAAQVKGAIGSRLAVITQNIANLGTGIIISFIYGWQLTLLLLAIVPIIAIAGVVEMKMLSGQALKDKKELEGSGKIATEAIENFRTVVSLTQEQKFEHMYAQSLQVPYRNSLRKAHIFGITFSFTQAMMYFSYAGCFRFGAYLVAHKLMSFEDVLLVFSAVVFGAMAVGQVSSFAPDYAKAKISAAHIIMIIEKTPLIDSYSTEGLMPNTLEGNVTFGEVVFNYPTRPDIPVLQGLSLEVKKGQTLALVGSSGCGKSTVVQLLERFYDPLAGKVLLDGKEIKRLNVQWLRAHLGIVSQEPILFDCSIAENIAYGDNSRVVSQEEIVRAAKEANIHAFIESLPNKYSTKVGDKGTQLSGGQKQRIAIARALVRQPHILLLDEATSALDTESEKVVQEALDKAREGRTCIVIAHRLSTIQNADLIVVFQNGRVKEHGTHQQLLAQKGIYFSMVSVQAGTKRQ

Row | Structure (SMILES) | Sol. H2O (reported solubility from the literature) [1] [mg/mL] | form of the 5 mg/ml formulation (suspension or solution) [2] | Sol. over PEG (solubility improvement fold over PEG 400) [2] [fold] | inhibition of P-glycoprotein (P-gp) (P-glycoprotein (P-gp))
1 | O=C(CCCN1CCC(O)(c2ccc(Cl)cc2)CC1)c1ccc(F)cc1 [Haloperidol, haloperidol] | 0.001 | suspensions | – | –
2 | O=C(O)c1cc(/N=N/c2ccc(S(=O)(=O)Nc3ccccn3)cc2)ccc1O [Sulfasalazine, sulfasalazine] | 0.010 | suspensions | >446 | –
3 | CCCCCCCCCCCCOC(=O)C(C)N(C)C (stereo not drawn) [DDAIP-HCL, dodecyl 2-(N,N-dimethylamino) propionate] | – | – | – | no inhibition
4 | N[C@H]1C(O)O[C@H](CO)[C@@H](O)[C@@H]1O (stereo partly drawn) [Glucosamine, glucosamine] | 551.000 | – | – | –
5 | NS(=O)(=O)c1cc2c(cc1Cl)N=CNS2(=O)=O [Chlorothiazide, chlorothiazide] | 0.300 | – | >363 | –
